The values below come from patent publication US20240407991A1, “LOW PENETRATION SUNSCREEN COMPOSITIONS” (Johnson & Johnson Consumer Inc., priority 2023, published 2024).

The test system of this data set is skin. As to the kind of experiment: Skin permeation of UV filters and active agents after topical application. The settings on record: from Compositions 27 to 31, topically applied.

As for `NC(=O)c1cccnc1` [niacinamide], the “skin permeation of cosmetically acceptable active agents” value was “permeated the skin”.
